Publication PMC12304293, “Combatting virulent gut bacteria by inhibiting the biosynthesis of a two-component lanthipeptide toxin” (Nature Communications, 2025)
Where “and” joins values, the source holds several entries; their conditions need not be identical. Equal entries are not always repeated. Where two headings read alike, the source gives them in different places. Non-standard residues stand in square brackets, D forms with d. Residues, ends and D or L forms follow the SMILES beside them. *: point of attachment. boroGlu = O=C(O)CC[C@H](N*)B(O)O; Gly(cPr) = N[C@H](C(=O)O)C1CC1

System: E. faecalis FA2-2 (pAM714), E. faecalis ATCC 29212
Assay type: cell-based, Enterococcus faecalis
Settings: for growth curve reading, ATCC 29212 +9: E. faecalis ATCC 29212 with 9; for growth curve reading, ATCC 29212 +9 / growth curve reading, pAM714 +9: trials 1-3; for growth curve reading, pAM714 +9: E. faecalis pAM714 with 9
Description: To a 96-well plate, BHI media was added containing 200 µM of inhibitor 9. An overnight culture of E. faecalis was diluted to a concentration of 10^6 CFU/mL and an equal volume of this culture was added to the well containing inhibitor. A growth control was prepared by combining the diluted bacterial cells with an equal volume of sterile BHI. A sterility control well was filled with sterile BHI to the same volume. The 96-well plate was transferred to a plate reader preheated to 37 °C and the plate was shaken continuously. The OD600 of each well was measured over the course of 24 h. Uncorrected OD600 values were plotted as a function of time. […]
or B) E. faecalis ATCC 29212. Wells containing B HI media were inocul ated with 1 x 106 C F U / m L of E. faecalis .I nhibitor 9 was added to achieve a well concentration of 100 µM. A growth control well not containing 9 an d a sterile control not co ntaining bacteria were s et up on the same plate.
The plate was incubated with shaking at 37 ̊C and the OD600 was measured every 30 min for 18h.
This experiment was conducted on three biological samples (n = 3). Error bars represent the standard of devi ation and are c enter ed at the me an. Source data are p rovided as a Source Data file. […]

## CC(=O)NCC(=O)N[C@@H](CC(=O)O)C(=O)N[C@H](C(=O)N[C@@H](CCC(N)=O)C(=O)N[C@@H](C)C(=O)N[C@@H](CCC(=O)O)B(O)O)C1CC1 [Compound 9] (Ac-GD[Gly(cPr)]QA-boroGlu)
100 µM, FA2-2 (pAM714) or ATCC 29212
  growth of C+ E. faecalis: did not impact the growth
Time 0 h
  growth curve reading, ATCC 29212 +9: 0.1154 and 0.116 and 0.0922
  growth curve reading, pAM714 +9: 0.0946 and 0.0915 and 0.093
Time 0.5 h
  growth curve reading, ATCC 29212 +9: 0.0985 and 0.1041 and 0.0924
  growth curve reading, pAM714 +9: 0.0971 and 0.0931 and 0.0938
Time 1 h
  growth curve reading, ATCC 29212 +9: 0.1003 and 0.1065 and 0.0941
  growth curve reading, pAM714 +9: 0.099 and 0.095 and 0.0956
Time 4 h
  growth curve reading, ATCC 29212 +9: 0.3147 and 0.3334 and 0.308
  growth curve reading, pAM714 +9: 0.1926 and 0.195 and 0.1996
Time 4.5 h
  growth curve reading, ATCC 29212 +9: 0.4828 and 0.507 and 0.4713
  growth curve reading, pAM714 +9: 0.2491 and 0.255 and 0.2626
Time 5 h
  growth curve reading, ATCC 29212 +9: 0.7061 and 0.7328 and 0.6866
  growth curve reading, pAM714 +9: 0.3385 and 0.3521 and 0.3631
Time 6 h
  growth curve reading, ATCC 29212 +9: 0.8111 and 0.8333 and 0.7942
  growth curve reading, pAM714 +9: 0.6065 and 0.6337 and 0.65
Time 6.5 h
  growth curve reading, ATCC 29212 +9: 0.8209 and 0.8395 and 0.8063
  growth curve reading, pAM714 +9: 0.7256 and 0.7465 and 0.7496
Time 7 h
  growth curve reading, ATCC 29212 +9: 0.8266 and 0.8438 and 0.8065
  growth curve reading, pAM714 +9: 0.7199 and 0.7425 and 0.7485
Time 8 h
  growth curve reading, ATCC 29212 +9: 0.8109 and 0.8262 and 0.7852
  growth curve reading, pAM714 +9: 0.7208 and 0.7411 and 0.7548
Time 8.5 h
  growth curve reading, ATCC 29212 +9: 0.7898 and 0.8142 and 0.7555
  growth curve reading, pAM714 +9: 0.7272 and 0.7466 and 0.7599
Time 9 h
  growth curve reading, ATCC 29212 +9: 0.756 and 0.7924 and 0.7138
  growth curve reading, pAM714 +9: 0.7255 and 0.7488 and 0.7571
Time 9.5 h
  growth curve reading, ATCC 29212 +9: 0.7216 and 0.7609 and 0.6743
  growth curve reading, pAM714 +9: 0.7184 and 0.7445 and 0.7497
Time 10 h
  growth curve reading, ATCC 29212 +9: 0.6983 and 0.7557 and 0.6452
  growth curve reading, pAM714 +9: 0.708 and 0.736 and 0.7402
Time 10.5 h
  growth curve reading, ATCC 29212 +9: 0.6599 and 0.7472 and 0.6197
  growth curve reading, pAM714 +9: 0.6972 and 0.7258 and 0.7305
Time 11 h
  growth curve reading, ATCC 29212 +9: 0.651 and 0.7261 and 0.5927
  growth curve reading, pAM714 +9: 0.6856 and 0.717 and 0.7218
Time 12 h
  growth curve reading, ATCC 29212 +9: 0.5996 and 0.6855 and 0.5551
  growth curve reading, pAM714 +9: 0.6642 and 0.6996 and 0.7054
Time 12.5 h
  growth curve reading, ATCC 29212 +9: 0.6003 and 0.6798 and 0.5403
  growth curve reading, pAM714 +9: 0.6586 and 0.6909 and 0.6988
Time 13 h
  growth curve reading, ATCC 29212 +9: 0.594 and 0.6632 and 0.5265
  growth curve reading, pAM714 +9: 0.6446 and 0.6836 and 0.6924
Time 13.5 h
  growth curve reading, ATCC 29212 +9: 0.5622 and 0.6648 and 0.515
  growth curve reading, pAM714 +9: 0.6425 and 0.6781 and 0.6878
Time 14 h
  growth curve reading, ATCC 29212 +9: 0.5532 and 0.6505 and 0.5057
  growth curve reading, pAM714 +9: 0.6308 and 0.6721 and 0.6814
Time 14.5 h
  growth curve reading, ATCC 29212 +9: 0.547 and 0.6403 and 0.4947
  growth curve reading, pAM714 +9: 0.6266 and 0.6677 and 0.6764
Time 15 h
  growth curve reading, ATCC 29212 +9: 0.5331 and 0.6268 and 0.5432
  growth curve reading, pAM714 +9: 0.6144 and 0.6613 and 0.6745
Time 15.5 h
  growth curve reading, ATCC 29212 +9: 0.5632 and 0.6227 and 0.5048
  growth curve reading, pAM714 +9: 0.6099 and 0.6586 and 0.6678
Time 16 h
  growth curve reading, ATCC 29212 +9: 0.5401 and 0.6149 and 0.5008
  growth curve reading, pAM714 +9: 0.6043 and 0.6548 and 0.6659
Time 16.5 h
  growth curve reading, ATCC 29212 +9: 0.5274 and 0.6109 and 0.5013
  growth curve reading, pAM714 +9: 0.6012 and 0.6523 and 0.6623
Time 17 h
  growth curve reading, ATCC 29212 +9: 0.5274 and 0.5922 and 0.4935
  growth curve reading, pAM714 +9: 0.5956 and 0.6495 and 0.6597
Time 17.5 h
  growth curve reading, ATCC 29212 +9: 0.5197 and 0.5739 and 0.5382
  growth curve reading, pAM714 +9: 0.5906 and 0.6489 and 0.6599
Time 18 h
  growth curve reading, ATCC 29212 +9: 0.5155 and 0.5767 and 0.5324
  growth curve reading, pAM714 +9: 0.5896 and 0.647 and 0.6581
